Among the data in PubChem BioAssay AID330 (DTP/NCI, 2004) are T/C values, retold here.

SMILES strings stand for the structures. “And” between values parts separate entries of the source, which are not always exact repeats. Equal values may be shown once. Inconclusive results and toxic doses are left out.

In this experiment the test system is P388 leukemia ip, CD2F1 mice, survival T/C. Briefly: NCI In Vivo Anticancer Drug Screen. Data for tumor model P388 Leukemia (intraperitoneal) in CD2F1 (CDF1) mice. As to conditions: endpoint: median survival time, higher = longer survival. Put shortly: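 Mice carrying the transplanted tumor received test compound or vehicle. Survival was recorded in each group, and the value is the treated-group measurement divided by that of the vehicle-treated control group.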

The mark [1] stands for this setting: dose: 25.0 mg/kg/injection, schedule: Q01DX009 (ip), vehicle: Klucel (hydroxypropylcellulose) (HPC).
The mark [2] stands for this setting: dose: 50.0 mg/kg/injection, schedule: Q01DX009 (ip), vehicle: Klucel (hydroxypropylcellulose) (HPC).
Where [3] appears, read: dose: 100.0 mg/kg/injection, schedule: Q01DX009 (ip), vehicle: Klucel (hydroxypropylcellulose) (HPC).
The mark [4] stands for this setting: dose: 200.0 mg/kg/injection, schedule: Q01DX009 (ip), vehicle: Klucel (hydroxypropylcellulose) (HPC).
The mark [5] stands for this setting: dose: 50.0 mg/kg/injection, schedule: Q01DX005 (ip), vehicle: Klucel (hydroxypropylcellulose) (HPC).
[6] abbreviates: dose: 100.0 mg/kg/injection, schedule: Q01DX005 (ip), vehicle: Klucel (hydroxypropylcellulose) (HPC).
Setting [7] is: dose: 200.0 mg/kg/injection, schedule: Q01DX005 (ip), vehicle: Klucel (hydroxypropylcellulose) (HPC).
Where [8] appears, read: dose: 60.0 mg/kg/injection, schedule: Q01DX005 (ip), vehicle: saline with Tween-80.
Setting [9] is: dose: 120.0 mg/kg/injection, schedule: Q01DX005 (ip), vehicle: saline with Tween-80.
[10] abbreviates: dose: 240.0 mg/kg/injection, schedule: Q01DX005 (ip), vehicle: saline with Tween-80.

As to `Cn1nc(CC#N)c2c(=N)n(N)cnc21`, the T/C by setting is: under setting [1], 119 % of control; under setting [2], 109 % of control; under setting [3], 104 % of control; under setting [4], 113 % of control.

For the molecule `CC(C)=C1C2C=CC1C1C2C(=O)C2OC2(CO)C1O` (configuration not stated), the T/C (dose: 50.0 mg/kg/injection, schedule: Q01DX005 (ip), vehicle: saline with Tween-80) was 100 % of control; the T/C (dose: 100.0 mg/kg/injection, schedule: Q01DX005 (ip), vehicle: saline with Tween-80) was 100 % of control; the T/C (dose: 200.0 mg/kg/injection, schedule: Q01DX005 (ip), vehicle: saline with Tween-80) is 101 % of control.

Regarding `CSC(=O)/N=C(\N)NC(=O)c1ccccc1`, the T/C is 95 % of control under setting [5], 94 % of control under setting [6] and 92 % of control under setting [7].

For the molecule `C=CC(=NC(C)(C)C)Nc1ccc(OC)cc1`, the T/C (dose: 50.0 mg/kg/injection, schedule: Q01DX009 (ip), vehicle: saline with Tween-80) is 112 % of control and the T/C (dose: 100.0 mg/kg/injection, schedule: Q01DX009 (ip), vehicle: saline with Tween-80) is 112 % of control.

Turning to `CCCC[S][Sn]([CH2]CCC)([CH2]CCC)[S]CCCC`, the T/C is 121 % of control (dose: 0.75 mg/kg/injection, schedule: Q01DX009 (ip), vehicle: saline with Tween-80) and 152 % of control (dose: 3.0 mg/kg/injection, schedule: Q01DX009 (ip), vehicle: saline with Tween-80).

In the case of `NC1C(N)C(N)C1N` (configuration not stated), the T/C is 102 % of control (dose: 12.5 mg/kg/injection, schedule: Q01DX005 (ip), vehicle: water); 102 % of control (dose: 25.0 mg/kg/injection, schedule: Q01DX005 (ip), vehicle: water); 102 % of control (dose: 50.0 mg/kg/injection, schedule: Q01DX005 (ip), vehicle: water); 98 % of control (dose: 100.0 mg/kg/injection, schedule: Q01DX005 (ip), vehicle: water); 94 % of control (dose: 200.0 mg/kg/injection, schedule: Q01DX005 (ip), vehicle: water).

In the case of `CC(Nc1cccc([N+](=O)[O-])c1)S(=O)(=O)O` (configuration not stated), the T/C is 97 % of control (dose: 50.0 mg/kg/injection, schedule: Q01DX009 (ip), vehicle: saline); 100 % of control (dose: 100.0 mg/kg/injection, schedule: Q01DX009 (ip), vehicle: saline); 97 % of control (dose: 200.0 mg/kg/injection, schedule: Q01DX009 (ip), vehicle: saline).

`C/C=C(\C)C(=O)Nc1c(C)cccc1Cl`: the T/C is 106 % of control (dose: 100.0 mg/kg/injection, schedule: Q04DX002 (ip), vehicle: Klucel (hydroxypropylcellulose) (HPC)) and 104 % of control (dose: 200.0 mg/kg/injection, schedule: Q04DX002 (ip), vehicle: Klucel (hydroxypropylcellulose) (HPC)).

For `COc1ccc2nccc(C(C)=O)c2c1`, the T/C was 100 % of control under setting [5], 98 % of control under setting [6] and 106 % of control under setting [7].

As for `COC(=O)Cc1nc2ccccc2s1`, the T/C is 102 % of control under setting [8], 104 % of control under setting [9] and 103 % of control under setting [10].

Turning to `COc1ccc(OC)c(NC(=O)CCCC(=O)C(C#N)c2ccc(CC#N)cc2)c1` (configuration not stated), the T/C is 98 % of control under setting [8], 98 % of control under setting [9] and 103 % of control under setting [10].

`CC(=O)N(C)c1ccc(Nc2cc(C)[nH]c3ccc4ncnc4c23)cc1`: the T/C is 120 % of control and 122 % of control (dose: 5.0 mg/kg/injection, schedule: Q01DX005 (ip), vehicle: saline); 100 % of control (dose: 6.25 mg/kg/injection, schedule: Q01DX005 (iv), vehicle: saline); 121 % of control and 123 % of control (dose: 7.0 mg/kg/injection, schedule: Q01DX005 (ip), vehicle: saline); 123 % of control (dose: 11.0 mg/kg/injection, schedule: Q01DX005 (ip), vehicle: saline); 104 % of control (dose: 12.5 mg/kg/injection, schedule: Q01DX001 (iv), vehicle: saline); 106 % of control (dose: 12.5 mg/kg/injection, schedule: Q01DX005 (iv), vehicle: saline). In addition, the T/C is 101 % of control (dose: 12.5 mg/kg/injection, schedule: Q01DX005 (oral), vehicle: saline); 95 % of control (dose: 12.5 mg/kg/injection, schedule: Q01DX009 (oral), vehicle: saline); 110 % of control (dose: 25.0 mg/kg/injection, schedule: Q01DX001 (ip), vehicle: saline); 100 % of control (dose: 25.0 mg/kg/injection, schedule: Q01DX001 (iv), vehicle: saline); 101 % of control (dose: 25.0 mg/kg/injection, schedule: Q01DX001 (oral), vehicle: saline); 105 % of control (dose: 25.0 mg/kg/injection, schedule: Q01DX005 (iv), vehicle: saline). The T/C runs as follows: (dose: 25.0 mg/kg/injection, schedule: Q01DX005 (oral), vehicle: saline) 100 % of control; (dose: 25.0 mg/kg/injection, schedule: Q01DX009 (oral), vehicle: saline) 94 % of control; (dose: 50.0 mg/kg/injection, schedule: Q01DX001 (ip), vehicle: saline) 123 % of control; (dose: 50.0 mg/kg/injection, schedule: Q01DX001 (iv), vehicle: saline) 103 % of control; (dose: 50.0 mg/kg/injection, schedule: Q01DX001 (oral), vehicle: saline) 99 % of control; (dose: 50.0 mg/kg/injection, schedule: Q01DX005 (ip), vehicle: saline) 155 % of control. Also, the T/C is 100 % of control (dose: 50.0 mg/kg/injection, schedule: Q01DX005 (iv), vehicle: saline); 103 % of control (dose: 50.0 mg/kg/injection, schedule: Q01DX005 (oral), vehicle: saline); 103 % of control (dose: 50.0 mg/kg/injection, schedule: Q01DX009 (oral), vehicle: saline); 158 % of control (dose: 90.0 mg/kg/injection, schedule: Q04DX002 (ip), vehicle: saline); 157 % of control (dose: 100.0 mg/kg/injection, schedule: Q01DX001 (ip), vehicle: saline); 124 % of control (dose: 100.0 mg/kg/injection, schedule: Q01DX001 (iv), vehicle: saline). Moreover, the T/C by setting is: (dose: 100.0 mg/kg/injection, schedule: Q01DX001 (oral), vehicle: saline) 101 % of control; (dose: 100.0 mg/kg/injection, schedule: Q01DX005 (oral), vehicle: saline) 97 % of control; (dose: 100.0 mg/kg/injection, schedule: Q01DX009 (oral), vehicle: saline) 104 % of control; (dose: 200.0 mg/kg/injection, schedule: Q01DX001 (oral), vehicle: saline) 105 % of control; (dose: 200.0 mg/kg/injection, schedule: Q01DX005 (oral), vehicle: saline) 103 % of control; (dose: 200.0 mg/kg/injection, schedule: Q01DX009 (oral), vehicle: saline) 100 % of control. The T/C is 102 % of control (dose: 300.0 mg/kg/injection, schedule: Q01DX001 (oral), vehicle: saline); 106 % of control (dose: 300.0 mg/kg/injection, schedule: Q01DX005 (oral), vehicle: saline); 106 % of control (dose: 400.0 mg/kg/injection, schedule: Q01DX001 (oral), vehicle: saline); 119 % of control (dose: 600.0 mg/kg/injection, schedule: Q01DX001 (oral), vehicle: saline); 119 % of control (dose: 600.0 mg/kg/injection, schedule: Q01DX005 (oral), vehicle: saline); 119 % of control (dose: 1200.0 mg/kg/injection, schedule: Q01DX001 (oral), vehicle: saline).

Consider `Cc1ccc(S(=O)(=O)N=N/C=C2/C=CC=CN2O)cc1`, for which the T/C runs as follows: under setting [1], 118 % of control and 121 % of control; under setting [2], 119 % of control; under setting [4], 124 % of control.

Turning to `O=[N+]([O-])c1ccc([Se]CCBr)c([N+](=O)[O-])c1`, the T/C by setting is: (dose: 100.0 mg/kg/injection, schedule: Q04DX003 (ip), vehicle: Klucel (hydroxypropylcellulose) (HPC)) 101 % of control; (dose: 200.0 mg/kg/injection, schedule: Q04DX003 (ip), vehicle: Klucel (hydroxypropylcellulose) (HPC)) 101 % of control.

Regarding `CSc1nc2ccc(NC(=O)/C=N/O)cc2s1`, the T/C reads like this: under setting [2], 91 % of control; under setting [3], 92 % of control; under setting [4], 87 % of control and 90 % of control.
